Laboratory results published in patent US12473533B2, “Gene targets for T-cell-based immunotherapy” (The Regents of the University of California, priority 2018, dated 2025).

Tested on: primary human T cells
Assay: Genome-wide SLICE pooled CRISPR screen: CFSE-sorted proliferation after TCR stimulation
Type: cell-based
Details: log2 fold-change of sgRNA, dividing over non-dividing cells; positive hits from GW screen
Description: To take full advantage of this platform, we scaled-up from the targeted pilot screen to genome-wide (GW) scale (Doench et al., 2016), transducing a library of 77,441 sgRNAs (19,114 genes) into T cells from two healthy donors. After confirming successful transduction of these primary human T cells (FIG. 8,A-B), the cells were re-stimulated and then FACS sorted into non-proliferating and highly-proliferating populations based on CFSE levels (FIG. 8C and Experimental Procedures). MAGeCK software (Li et al., 2014) was used to systematically identify genes that are positively or negatively selected in the proliferating population of T cells. Top positive and negative regulators from the pilot screen were confirmed in both biological replicates of the GW screen along with numerous other hits (FIG. 2A, B). To hone the list of top candidates, we performed an independent secondary screen in cells from two additional human blood donors. The results were well correlated between the primary and secondary screens (FIG. 2C). Furthermore, integrated analysis of the two independent screens performed on a total of four human blood donors provided improved power for target discovery, particularly for negative regulators of T cell proliferation (FIG. 8D). To confirm that hits are in fact dependent on TCR stimulation, we performed GW screens with increasing levels of TCR stimulation. […] The observed dose-response confirmed that the majority of the screen hits are dependent on the TCR stimulus and serve to tune resulting proliferative responses. Taken together these screens identified dozens of genetic perturbations that positively and negatively modulate T cell proliferation.
24 hours post stimulation, lentivirus was added directly to cultured T cells at a 1:300 v/v ratio and gently mixed by tilting. Following 24 hours, cells were collected, pelleted, and resuspended in Lonza electroporation buffer P3 (Lonza, Cat #V4XP-3032) at 20e6 cells/100 μl. Next, Cas9 protein (MacroLab, Berkeley, 40 μM stock) was added to cell suspension at 1:10 v/v ratio. Cells were electroporated at 20e6 cells per cuvette using the pulse code EH115 (Lonza, cat #VVPA-1002). The total number of cells for electroporation was scaled as required. Immediately after electroporation, 1 mL of pre-warmed media was added to each cuvette and cuvettes were placed at 37 degrees for 20 minutes. Cells were then transferred to culture vessels in X-Vivo media containing 50 U/ml IL-2 at 1e6 cells/ml in appropriate tissue culture vessels. Cells were expanded every two days, adding fresh media with IL-2 at 50 U/ml and maintaining the cell density at 1e6 cells/ml.
Cultured cells were collected, spun, washed with PBS, and then resuspended at 1-10 million cells/ml in PBS. CFSE (Biolegend, Cat #423801) was prepared per the manufacturer's protocol to make a 5 mM stock solution in DMSO. This stock solution was diluted 1:1000 in PBS for a 5 μM working solution, and then added in a 1:1 v/v ratio to cell suspension. After mixing, cells were incubated for 5 minutes in the dark at room temperature. The stain was then quenched with a volume of media that was at least 5× the stain volume (e.g. 2 ml+10 ml), and incubated for one minute at room temperature in the dark. Cells were then spun down and resuspended in media prior to restimulation.
PBMCs from multiple human healthy human donors were isolated from TRIMA residuals (see methods). TRIMA residuals were purchased from Blood Centers of the Pacific. After CD8 T cells isolation as above (Day 0), cells were rested in X-Vivo media overnight and then stimulated with plate-bound anti-human CD3/CD28 and IL-2 at 50 U/mL the following day (Day 1). 24 hours after stimulation (Day 2), cells were transduced with concentrated lentivirus encoding the pooled sgRNA library (see methods). […] after transduction (Day 3), cells were electroporated with CAS9 protein (methods). […]

Sequence	LFC (~effect magnitude)
AAGCGTCAAAAGTCTGCCAG (chemistry not given here) [SEQ ID NO: 9, sgRNA targeting CD5]	0.5512
ACGGACATGAAGCAATATCA (listed as DNA, chemistry not fully specified) [SEQ ID NO: 34, sgRNA targeting TMEM222]	1.0461
AGAGCATTATGGGCAGACAG (listed as DNA, chemistry not fully specified) [SEQ ID NO: 22, sgRNA targeting GNA13]	0.3825
AGATATCACACATTACAGTG (listed as DNA, chemistry not fully specified) [SEQ ID NO: 25, sgRNA targeting RASA2]	0.861
AGGATCGACTTGTGGAACAA (listed as DNA, chemistry not fully specified) [SEQ ID NO: 27, sgRNA targeting RASA2]	0.4134
AGGCTCCAGGAATGTCCGCG (listed as DNA, chemistry not fully specified) [SEQ ID NO: 20, sgRNA targeting DGKZ]	0.4227
AGGTTCCAGGTCCGATCCAG (listed as DNA, chemistry not fully specified) [SEQ ID NO: 10, sgRNA targeting CD8A]	0.8084
AGTTCTACTACAGACCCCCG (chemistry not given here) [SEQ ID NO: 12, sgRNA targeting CDKN1B]	0.8623
CAAGTACCGACGCGCCAGCG (listed as DNA, chemistry not fully specified) [SEQ ID NO: 23, sgRNA targeting MEF2D]	0.7255
CAGCACTAGCAGTGGCACGG (chemistry not given here) [SEQ ID NO: 15, sgRNA targeting DGKA]	0.722
CATCATCCCTCACGGACCCG (listed as DNA, chemistry not fully specified) [SEQ ID NO: 24, sgRNA targeting MEF2D]	0.46
CCACTTGTTAACAGAGACCG (listed as DNA, chemistry not fully specified) [SEQ ID NO: 38, sgRNA targeting TNFAIP3]	0.633
CCAGTACAAACCCCAGAACG (listed as DNA, chemistry not fully specified) [SEQ ID NO: 40, sgRNA targeting UBASH3A]	0.6566
CCCCGTGCAGCGAGTCAGAG (listed as DNA, chemistry not fully specified) [SEQ ID NO: 18, sgRNA targeting DGKZ]	0.4938
CCGCTTTCCAGTGACCGACG (listed as DNA, chemistry not fully specified) [SEQ ID NO: 21, sgRNA targeting FIBP]	0.5586
CCTGTACCCGAATAACCATG (listed as DNA, chemistry not fully specified) [SEQ ID NO: 4, sgRNA targeting ARIH2]	0.3813
CGAAAAAGCAGTTCCGCTGG (listed as DNA, chemistry not fully specified) [SEQ ID NO: 30, sgRNA targeting SOCS1]	0.6088
CGGCGTGCGAACGGAATGTG (listed as DNA, chemistry not fully specified) [SEQ ID NO: 31, sgRNA targeting SOCS1]	0.7842
CGGCTCAGCTGGTATGACCC (chemistry not given here) [SEQ ID NO: 8, sgRNA targeting CD5]	1.4145

Sequence	LFC (~effect magnitude)
CGTGCTGGTGGTTCGCCACG (listed as DNA, chemistry not fully specified) [SEQ ID NO: 39, sgRNA targeting UBASH3A]	1.0191
CTCCCAAACTGACCTCTAGG (listed as DNA, chemistry not fully specified) [SEQ ID NO: 16, sgRNA targeting DGKA]	0.7081
CTCTCCTCAGTACCACAGCA (listed as DNA, chemistry not fully specified) [SEQ ID NO: 19, sgRNA targeting DGKZ]	0.6587
CTTGGCGTCCGTGAAGATGG (listed as DNA, chemistry not fully specified) [SEQ ID NO: 33, sgRNA targeting TCEB2]	0.6135
GAACGCGCTGAGAGTCCGTG (listed as DNA, chemistry not fully specified) [SEQ ID NO: 3, sgRNA targeting AGO1]	0.8318
GAATAAGATGTTCTACGCCG (listed as DNA, chemistry not fully specified) [SEQ ID NO: 17, sgRNA targeting DGKZ]	0.6282
GACTCACTGAGACAAAGTAG (listed as DNA, chemistry not fully specified) [SEQ ID NO: 36, sgRNA targeting TMEM222]	0.8727
GAGAACCTCGGAACATACGG (listed as DNA, chemistry not fully specified) [SEQ ID NO: 28, sgRNA targeting SMARCB1]	0.6271
GAGCAGCGGCTGTACAAGGT (listed as DNA, chemistry not fully specified) [SEQ ID NO: 32, sgRNA targeting TCEB2]	1.0955
GCAGGAAGACCGGCACGAAG (listed as DNA, chemistry not fully specified) [SEQ ID NO: 11, sgRNA targeting CD8A]	0.6365
GGGCAAGTACGAGTGGCAAG (chemistry not given here) [SEQ ID NO: 13, sgRNA targeting CDKN1B]	0.9886
GGGCCCCCAGTAGAATCCGC (listed as DNA, chemistry not fully specified) [SEQ ID NO: 29, sgRNA targeting SOCS1]	1.2551
TATGCCATGAGTGCTCAGAG (listed as DNA, chemistry not fully specified) [SEQ ID NO: 37, sgRNA targeting TNFAIP3]	0.651
TGAGGAGTACAAGCACCGCA (listed as DNA, chemistry not fully specified) [SEQ ID NO: 35, sgRNA targeting TMEM222]	1.3341
TGCACAGAACTATCGTACCA (listed as DNA, chemistry not fully specified) [SEQ ID NO: 5, sgRNA targeting CBLB]	1.9597
TGGACCACGAAGAGTTAACC (chemistry not given here) [SEQ ID NO: 14, sgRNA targeting CDKN1B]	0.8112
TGTGGGATGTCGACTCCTAG (chemistry not given here) [SEQ ID NO: 7, sgRNA targeting CBLB]	0.7876
TTAGCATCAAGGCATGCCAT (listed as DNA, chemistry not fully specified) [SEQ ID NO: 26, sgRNA targeting RASA2]	0.7258
TTCCGCAAAATAGAGCCCCA (listed as DNA, chemistry not fully specified) [SEQ ID NO: 6, sgRNA targeting CBLB]	1.5917
